Here are results for 31 compounds from ChEMBL document CHEMBL1135057, “A combinatorial library of indinavir analogues and its in vitro and in vivo studies” (Bioorg Med Chem Lett, 2002).

Bounds are passed on as bounds.

The nature of data set [1]: Tested for the pharmacokinetic data, area under the curve of concentration versus time in dog. Type of data set: ADME, organism-based, Canis lupus familiaris. Conditions: in vivo.
A further data set is filed under the species Canis familiaris. The experiment in a line: Tested for the pharmacokinetic data, time required to reach Cmax (Tmax) in dog. It counts as ADME, organism-based, Canis lupus familiaris. As to conditions: in vivo.
Data set [2] in a line: Tested for the pharmacokinetic data, maximum concentration (Cmax) in dog. It counts as ADME, organism-based, Canis lupus familiaris. Conditions: in vivo.
The nature of data set [3]: Tested for the half life period in dog. Type of data set: ADME, organism-based, Canis lupus familiaris. As to conditions: in vivo.
The target of data set [4] is T1, Human immunodeficiency virus type 1 protease (Human immunodeficiency virus 1, UniProt Q72874). The experiment in a line: In vitro inhibitory activity against mutant HIV-1 (A-44)protease.
The subject of data set [5] is Human immunodeficiency virus 1. The experiment in a line: Inhibition of the spread of viral infection in MT-4 human T-lymphoid cells infected by IIIb isolate. It counts as functional. As to conditions: read-out: CIC95.
For data set [6], the target named is T1, Human immunodeficiency virus type 1 protease. Kind of data set: In vitro inhibitory activity against wild type HIV-1 protease.
[7] abbreviates: Human immunodeficiency virus 1, T-lymphoid.

In data set [1], `CC(C)(C)NC(=O)[C@@H]1CN(Cc2cccnc2)CCN1C[C@@H](O)C[C@@H](Cc1ccc(F)cc1)C(=O)NC1c2ccccc2C[C@H]1O` (single isomer, unassigned) returned an AUC of 0.258 µM·h. Also, in the data set filed under Canis familiaris, the T max was 40 min. The compound further displayed a Cmax in data set [2] of 264 nM. In addition, in data set [3], the half-life is 44.6 min.
Consider `Cn1cc(CN2CCN(C[C@@H](O)C[C@@H](Cc3ccccc3)C(=O)N[C@@H]3c4ccccc4C[C@H]3O)[C@H](C(=O)NC(C)(C)C)C2)c2ccccc21`, for which the IC50 came to 332 nM in data set [4] and 6.7 nM in data set [6]. Besides, in data set [5] (setting [7]), the IC95 was above 400 nM.
Consider `CC(C)(C)NC(=O)[C@@H]1CN(Cc2cccnc2)CCN1C[C@@H](O)C[C@@H](CC1CC1)C(=O)NC1c2cccc(Cl)c2C[C@H]1O` (single isomer, unassigned), for which, in data set [1], the AUC stood at 0.566 µM·h. Also, the T max in the data set listed under Canis familiaris amounted to 40 min. Also, in data set [2], the Cmax turned out to be 626 nM. Further, the half-life in data set [3] was found to be 23 min.
Turning to `CC(C)(C)NC(=O)[C@@H]1CN(Cc2cc3ccccc3o2)CCN1C[C@@H](O)C[C@@H](Cc1ccccc1)C(=O)NC1c2ccccc2C[C@H]1O` (some centres not stated), the IC50 in data set [4] was 24 nM; in data set [6], 0.49 nM. Besides, in data set [5] (setting [7]), the IC95 worked out at 50 nM.
Compound `CC(C)(C)NC(=O)[C@@H]1CN(Cc2cccnc2)CCN1C[C@@H](O)C[C@@H](Cc1ccc(F)cc1)C(=O)NC1c2cccc(Cl)c2C[C@H]1O` (single isomer, unassigned) came in with an AUC in data set [1] of 0.181 µM·h. Further, the T max in the data set filed under Canis familiaris turned out to be 40 min. In data set [2], this compound had a Cmax of 180 nM. For the same compound, the half-life in data set [3] was 50.5 min.
The corresponding values for `CC(C)(C)NC(=O)[C@@H]1CN(Cc2cccnc2)CCN1C[C@@H](O)C[C@@H](Cc1ccc(F)cc1)C(=O)N[C@@H]1c2cccc(F)c2C[C@H]1O` are 0.197 µM·h, 40 min, 195 nM and 48.2 min.
As to `CC(C)(C)NC(=O)[C@@H]1CN(CC2(c3ccccc3)CC2)CCN1C[C@@H](O)C[C@@H](Cc1ccccc1)C(=O)N[C@@H]1c2ccccc2C[C@H]1O`, the IC50 in data set [4] was 257 nM; in data set [6], 7.7 nM. Moreover, the IC95 in data set [5] (setting [7]) is above 400 nM.
In turn, `CC(C)(C)NC(=O)[C@@H]1CN(Cc2cccnc2)CCN1C[C@@H](O)C[C@@H](Cc1ccccc1)C(=O)NC1c2ccccc2C[C@H]1O.O` (single isomer, unassigned) [INDINAVIR] came in with an AUC in data set [1] of 0.307 µM·h. This compound also returned a T max in the data set filed under Canis familiaris of 40 min. Besides, the Cmax in data set [2] was found to be 358 nM. For the same compound, the IC95 in data set [5] (setting [7]) turned out to be 50 nM; in data set [5], 50.5 nM. The half-life in data set [3] amounted to 27.1 min.
In the case of `CC(C)(C)NC(=O)[C@@H]1CN(Cc2noc3ccccc23)CCN1C[C@@H](O)C[C@@H](Cc1ccccc1)C(=O)NC1c2ccccc2C[C@H]1O` (some centres not stated), the IC50 turned out to be 71.5 nM in data set [4] and 1.17 nM in data set [6]. Moreover, the IC95 in data set [5] (setting [7]) came out at 400 nM.
The corresponding values for `CN(C)c1ccc2ccc(S(=O)(=O)N3CCN(C[C@@H](O)C[C@@H](Cc4ccccc4)C(=O)N[C@@H]4c5ccccc5C[C@H]4O)[C@H](C(=O)NC(C)(C)C)C3)cc2n1` are 2.2 nM, 0.22 nM and 50 nM.
In data set [1], `CC(C)(C)NC(=O)[C@@H]1CN(Cc2cccnc2)CCN1C[C@@H](O)C[C@@H](CC1CC1)C(=O)NC1c2cccc(F)c2C[C@H]1O` (single isomer, unassigned) gave an AUC of 0.525 µM·h. For the same compound, the T max in the data set filed under Canis familiaris came out at 40 min. Further, the highest level in data set [2] (Cmax) was 610 nM. The compound further returned a half-life in data set [3] of 20.2 min.
In the case of `CC(C)(C)NC(=O)[C@@H]1CN(Cc2cc3cc(F)ccc3o2)CCN1C[C@@H](O)C[C@@H](Cc1ccccc1)C(=O)N[C@@H]1c2ccccc2C[C@H]1O`, the IC50 in data set [4] is 46 nM; in data set [6], 0.94 nM. Further, the IC95 in data set [5] (setting [7]) stood at 200 nM.
The corresponding values for `CC1=CSC2C(CN3CCN(C[C@@H](O)C[C@@H](Cc4ccccc4)C(=O)N[C@@H]4c5ccccc5C[C@H]4O)[C@H](C(=O)NC(C)(C)C)C3)N=CN12` (some centres not stated) are 378 nM, 6.7 nM and above 400 nM.
In the case of `CC(C)(C)NC(=O)[C@@H]1CN(Cc2ncc(-c3ccccc3)s2)CCN1C[C@@H](O)C[C@@H](Cc1ccccc1)C(=O)N[C@@H]1c2ccccc2C[C@H]1O`, the IC50 in data set [4] was 2 nM; in data set [6], 0.26 nM. Also, the IC95 in data set [5] (setting [7]) is 50 nM.
In data set [1], `CC(C)(C)NC(=O)[C@@H]1CN(Cc2cccnc2)CCN1C[C@@H](O)C[C@@H](Cc1cccnc1)C(=O)NC1c2cccc(Cl)c2C[C@H]1O` (single isomer, unassigned) showed an AUC of 0.227 µM·h. The T max in the data set filed under Canis familiaris is 40 min. For the same compound, the Cmax in data set [2] is 220 nM. The compound further yielded a half-life in data set [3] of 23.9 min.
On to `CC(C)(C)NC(=O)[C@@H]1CN(Cc2cccnc2)CCN1C[C@@H](O)C[C@@H](CC1CCCCC1)C(=O)NC1c2cccc(F)c2C[C@H]1O` (single isomer, unassigned), for which the AUC in data set [1] was 0.236 µM·h. Besides, the T max in the data set filed under Canis familiaris was determined as 40 min. This compound also came in with a Cmax in data set [2] of 148 nM. In addition, the half-life in data set [3] was 48.2 min.
For `CC(C)(C)NC(=O)[C@@H]1CN(Cc2cccnc2)CCN1C[C@@H](O)C[C@@H](Cc1ccccc1)C(=O)NC1c2cccc(F)c2C[C@H]1O` (single isomer, unassigned), the AUC in data set [1] was 0.258 µM·h. The compound further gave a T max in the data set listed under Canis familiaris of 40 min. In data set [2], this compound registered a Cmax of 250 nM. In data set [3], this compound came in with a half-life of 44.5 min.
Take `CC(C)(C)NC(=O)[C@@H]1CN(Cc2nc3ccccc3o2)CCN1C[C@@H](O)C[C@@H](Cc1ccccc1)C(=O)N[C@@H]1c2ccccc2C[C@H]1O`: the IC50 in data set [4] came out at 66 nM; in data set [6] it was 1.2 nM. In addition, the IC95 in data set [5] (setting [7]) is 400 nM.
Consider `CC(C)(C)NC(=O)[C@@H]1CN(CCCC(F)(F)F)CCN1C[C@@H](O)C[C@@H](Cc1ccccc1)C(=O)N[C@@H]1c2ccccc2C[C@H]1O`, for which the figures for the IC50 in data set [4] and in data set [6] were 568 nM and 15.3 nM, respectively. Besides, the IC95 in data set [5] (setting [7]) is above 400 nM.
`C[C@@H]1CC[C@@H](O)C1NC(=O)[C@H](Cc1ccccc1)C[C@H](O)CN1CCN(Cc2cccnc2)C[C@H]1C(=O)NC(C)(C)C` (single isomer, unassigned) registered an AUC in data set [1] of 0.512 µM·h. In the data set listed under Canis familiaris, this compound registered a T max of 40 min. The Cmax in data set [2] was 554 nM. Moreover, the half-life in data set [3] stood at 31.5 min.
For `C[C@@H]1CC[C@@H](O)C1NC(=O)[C@H](Cc1cccnc1)C[C@H](O)CN1CCN(Cc2cccnc2)C[C@H]1C(=O)NC(C)(C)C` (single isomer, unassigned), in that order: 0.464 µM·h, 40 min, 524 nM and 23.4 min.
In the case of `Cn1cc(CN2CCN(C[C@@H](O)C[C@@H](Cc3ccccc3)C(=O)N[C@@H]3c4ccccc4C[C@H]3O)[C@H](C(=O)NC(C)(C)C)C2)ccc1=O`, the IC50 in data set [4] is 131 nM; in data set [6], 2.2 nM. In data set [5] (setting [7]), the IC95 is 400 nM.
Turning to `CC(C)(C)NC(=O)[C@@H]1CN(Cc2cccc(C(C)(C)NC(=O)OC(C)(C)C)c2)CCN1C[C@@H](O)C[C@@H](Cc1ccccc1)C(=O)N[C@@H]1c2ccccc2C[C@H]1O`, the IC50 came to 392 nM in data set [4] and 28 nM in data set [6]. Moreover, the IC95 in data set [5] (setting [7]) is above 400 nM.
Turning to `C[C@@H]1CC[C@@H](O)[C@@H]1NC(=O)[C@H](Cc1ccc(F)cc1)C[C@H](O)CN1CCN(Cc2cccnc2)C[C@H]1C(=O)NC(C)(C)C`, the area under the curve (AUC) in data set [1] is 0.371 µM·h. For the same compound, in the data set filed under Canis familiaris, the T max turned out to be 40 min. The compound also registered a Cmax in data set [2] of 378 nM. The compound also registered a half-life in data set [3] of 39.2 min.
For `CC(C)(C)NC(=O)[C@@H]1CN(Cc2cccnc2)CCN1C[C@@H](O)C[C@@H](CC1CC1)C(=O)NC1c2ccccc2C[C@H]1O` (single isomer, unassigned), in that order: 0.566 µM·h, 40 min, 651 nM and 21.2 min.
Turning to `CC(C)(C)NC(=O)[C@@H]1CN(Cc2nc3ccccc3s2)CCN1C[C@@H](O)C[C@@H](Cc1ccccc1)C(=O)N[C@@H]1c2ccccc2C[C@H]1O`, the IC50 was 71.7 nM in data set [4] and 1.2 nM in data set [6]. Besides, the IC95 in data set [5] (setting [7]) is 400 nM.
In turn, `CC(C)(C)NC(=O)[C@@H]1CN(Cc2cccnc2)CCN1C[C@@H](O)C[C@@H](Cc1cccnc1)C(=O)NC1c2cccc(F)c2C[C@H]1O` (single isomer, unassigned) displayed an AUC in data set [1] of 0.245 µM·h. In the data set listed under Canis familiaris, this compound registered a T max of 40 min. Besides, the Cmax in data set [2] was 268 nM. This compound gave a half-life in data set [3] of 28.7 min.
As to `CC(C)(C)NC(=O)[C@@H]1CN(Cc2cccnc2)CCN1C[C@@H](O)C[C@@H](CC1CCCCC1)C(=O)NC1c2ccccc2C[C@H]1O` (single isomer, unassigned), the AUC in data set [1] is 0.26 µM·h. This compound came in with a T max in the data set listed under Canis familiaris of 40 min. This compound came in with a Cmax in data set [2] of 232 nM. Moreover, the half-life in data set [3] was determined as 54.4 min.
In the case of `CC(C)(C)NC(=O)[C@@H]1CN(Cc2cccnc2)CCN1C[C@@H](O)C[C@@H](Cc1cccnc1)C(=O)N[C@@H]1c2ccccc2C[C@H]1O`, in data set [1], the AUC is 0.291 µM·h. The compound further had a T max in the data set listed under Canis familiaris of 40 min. The compound also returned a Cmax in data set [2] of 313 nM. The half-life in data set [3] was determined as 43.4 min.
For `CC(C)(C)NC(=O)[C@@H]1CN(Cc2cccnc2)CCN1C[C@@H](O)C[C@@H](Cc1ccccc1)C(=O)NC1c2cccc(Cl)c2C[C@H]1O` (single isomer, unassigned), the AUC in data set [1] came out at 0.256 µM·h. The same compound returned a T max in the data set listed under Canis familiaris of 40 min. The compound also gave a Cmax in data set [2] of 250 nM. This compound had a half-life in data set [3] of 45.8 min.
Take `Cn1nc(C(F)(F)F)cc1-c1ccc(CN2CCN(C[C@@H](O)C[C@@H](Cc3ccccc3)C(=O)N[C@@H]3c4ccccc4C[C@H]3O)[C@H](C(=O)NC(C)(C)C)C2)s1`: the values for the IC50 in data set [4] and in data set [6] were 0.6 nM and 0.13 nM, respectively. For the same compound, in data set [5] (setting [7]), the IC95 came to 25 nM.

Usually AUC stands for the area under the concentration-time curve, a measure of exposure. In general, Cmax refers to the highest concentration seen after dosing. What is called half-life is the time needed for the level to fall by half in the phase considered. Lower therefore signals rapid decline. Broadly, the IC50 is the point on the concentration scale where inhibition reaches its midpoint.
